One test concerns cholesterol absorption. Description: Inhibition of cholesterol absorption in rats fed 1% cholesterol:0.5% cholic acid diet. It is filed as in vivo, male Sprague-Dawley rats. The following applies: po, 336 h; rat; dose .03% of the diet, 2 weeks; read-out: LS (liver sterol), percentage of control values. The essentials:
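Male Sprague-Dawley rats (150-170 g) fed 1% cholesterol:0.5% cholic acid diet for 2 weeks with compound at 0.001, 0.003, 0.01 or 0.03% of diet. Serum cholesterol measured enzymatically; liver cholesterol from saponified large-lobe sample after petroleum ether extraction. Liver and serum sterol expressed as percent of untreated controls.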
On to `CCCCCOc1ccc(CN(Cc2ccc(CCCCC)cc2)C(=O)Nc2ccc(Cl)cc2Cl)cc1` [1-(4-n-Pentylbenzyl)-1-(4-n-pentyloxybenzyl)-3-(2,4-dichlorophenyl)urea], for which the response vs control in vivo at 0.03 % is 92%.
On the same count and under the same terms, for `CCCCN(Cc1ccccc1)C(=O)Nc1c(C)cccc1C` [1-Benzyl-1-( -n-butyl)-3-(2,6-dimethylphenyl)urea] the value was 91%.

Still in this test, the particulars now being: po, 336 h; rat; dose .03% of the diet, 2 weeks; read-out: SS (serum sterol), percentage of control values.
With `CCCCCOc1ccc(CN(Cc2ccc(CCCCC)cc2)C(=O)Nc2ccc(Cl)cc2Cl)cc1` [1-(4-n-Pentylbenzyl)-1-(4-n-pentyloxybenzyl)-3-(2,4-dichlorophenyl)urea], the response vs control in vivo at 0.03 % was determined as 91%.
On the same count and under the same terms, with `CCCCN(Cc1ccccc1)C(=O)Nc1c(C)cccc1C` [1-Benzyl-1-( -n-butyl)-3-(2,6-dimethylphenyl)urea] the figure was 68%.

A further test concerns the target T1, fatty acyl CoA: cholesterol acyl transferase (ACAT) (Rattus norvegicus, UniProt O70536).
T1 construct: The supernatant, containing the microsomal fraction, served as the source of the cholesterol-esterifying enzyme; from tissue; host or cells: rat adrenals, supernatant of 1,000 x g centrifugation containing the microsomal fraction
T1 sequence (O70536 1-545): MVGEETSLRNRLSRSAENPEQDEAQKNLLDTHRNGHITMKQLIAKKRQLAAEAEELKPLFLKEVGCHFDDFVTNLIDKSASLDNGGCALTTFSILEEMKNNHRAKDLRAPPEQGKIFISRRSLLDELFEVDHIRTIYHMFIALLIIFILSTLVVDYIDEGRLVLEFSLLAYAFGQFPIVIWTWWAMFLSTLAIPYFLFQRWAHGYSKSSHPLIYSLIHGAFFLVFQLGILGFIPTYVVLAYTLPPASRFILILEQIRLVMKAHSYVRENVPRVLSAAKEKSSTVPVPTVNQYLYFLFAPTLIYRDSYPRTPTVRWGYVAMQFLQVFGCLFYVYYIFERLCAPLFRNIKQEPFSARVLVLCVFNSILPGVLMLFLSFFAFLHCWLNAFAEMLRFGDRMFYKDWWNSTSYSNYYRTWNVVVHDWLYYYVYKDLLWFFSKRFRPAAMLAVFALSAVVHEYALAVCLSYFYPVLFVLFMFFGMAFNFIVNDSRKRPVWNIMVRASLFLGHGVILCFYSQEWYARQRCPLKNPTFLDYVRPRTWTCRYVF
The experiment in a line: Inhibition of fatty acyl CoA:cholesterol acyl transferase (ACAT), rat adrenal enzyme.
Settings: not given
In kind it is biochemical. On the procedure:
The compounds of the present invention were assayed for two types of biological activity related to their potential use as antiatherosclerotic agents. Compounds were tested in vitro for the ability to inhibit the enzyme fatty acyl CoA: cholesterol acyl transferase (ACAT) and in vivo for serum hypolipidemic activity as meausred by the ability to inhibit lipid absorption in rats.
The compounds were tested for their ability to inhibit ACAT according to the following procedure: rat adrenals were homogenized in 0.2M monobasic potassium phosphate buffer, pH 7.4, and centrifuged at 1,000 times gravity for 15 minutes at 5° C. The supernatant, containing the microsomal fraction, served as the source of the cholesterol-esterifying enzyme, fatty acyl CoA:cholesterol acyl transferase (ACAT). A mixture comprising 50 parts of adrenal supernatant, 10 parts of bovine serum albumin (50 mg/ml), 3 parts of test compound (final concentration 5.2 μg/ml), and 500 parts of buffer was preincubated at 37° C. for 10 minutes. After treatment with 20 parts of oleoyl CoA (^14 C-0.4 μCi), the mixture was incubated at 37° C. for 10 minutes. A control mixture, omitting the test compound, was prepared and treated in the same manner. The lipids from the incubation mixture was extracted into an organic solvent and separated by thin-layer chromatography. The cholesteryl ester fraction was counted in a scintillation counter. This procedure is a modification of that described by Hashimoto, et al., Life Scie., 12 (Part II), 1-12 (1973).
Compounds which produced statistically significant inhibition of the ACAT enzyme are considered to be active.
In addition to the above described test and the results given in terms of percent inhibition, various compounds of this invention were tested by the same procedure at several concentrations. The results of this test are given in Table II in terms of IC50 (μM), that concentration which produced 50% inhibition of the ACAT enzyme.
For orientation: inhibition means how much of the control response was suppressed. With `CC(C)(C)CCN(Cc1ccc(CC(C)(C)C)cc1)C(=O)Nc1c(F)cc(F)cc1F` [1-[3,3-dimethylbutyl]-1-[[4-(2,2-dimethylpropyl)phenyl]methyl]-3-[2,4,6-trifluorophenyl]urea], the inhibition at 5.2 µg/mL was found to be 90%.
Same read-out and setting: with `CC(C)(C)CCN(Cc1ccccc1)C(=O)Nc1c(F)cc(F)cc1F` [1-Benzyl-1-[3,3-dimethylbutyl]-3-[2,4,6-trifluorophenyl]urea] the figure was 90%; with `CCCCc1ccc(CN(CCC(C)(C)C)C(=O)Nc2cccc(C(F)(F)F)c2)cc1` [1-(3,3-Dimethylbutyl)-1-[4-(n-butyl)benzyl]-3-(3-trifluoromethylphenyl)urea], 90%.
In turn, `CCCCc1ccc(CN(CCC(C)(C)C)C(=O)Nc2c(F)cc(F)cc2F)cc1` [1-[(4-butylphenyl)methyl]-1-[3,3-dimethylbutyl]-3-[2,4,6-trifluorophenyl]urea] registered an inhibition at 5.2 µg/mL of 90%.

Still in this test, the particulars now being: rat adrenal ACAT; final concentration 5.2 μg/ml.
In general, % Inhibition refers to the relative decrease from the control value, in per cent. A higher % Inhibition goes with a response far below the control. With “1-[(4-Butylphenyl)methyl]-1-[6-[(methylsulfonyl)oxy]-hexyl]-3-[(2,4,5-trimethylphenyl)methyl]urea”, the “% Inhibition” value is reported as 90.0%.

Still in this test, the particulars now being: rat adrenal ACAT; final concentration 5.2 μg/ml; read-out: % Inhibition.
Turning to `CCCCCOc1ccc(CN(Cc2ccc(CCCCC)cc2)C(=O)Nc2ccc(Cl)cc2Cl)cc1` [1-(4-n-Pentylbenzyl)-1-(4-n-pentyloxybenzyl)-3-(2,4-dichlorophenyl)urea], the inhibition at 5.2 µg/mL came out at 85%.
In the case of `CCCCN(Cc1ccccc1)C(=O)Nc1c(C)cccc1C` [1-Benzyl-1-( -n-butyl)-3-(2,6-dimethylphenyl)urea], the inhibition at 5.2 µg/mL came out at 83.1%.
Same read-out and setting: for `Cc1ccc(NC(=O)N(Cc2ccccc2)C(Cc2ccccc2)c2ccc(OCc3ccccc3)cc2)c(C)c1` (centres unmarked) [1-Benzyl-1-[1-(4-benzyloxyphenyl)-2-phenylethyl]-3-(2,4-dimethylphenyl)urea] the value was 93%; for `Cc1cc(C)c(NC(=O)N(Cc2ccccc2)C(Cc2ccccc2)c2ccc(OCc3ccccc3)cc2)cc1C` (centres unmarked) [1-Benzyl-1-[2-phenyl-1-(4-benzyloxyphenyl)ethyl]-3-(2,4,5-trimethylphenyl)urea], 93.7%.
The same measure, in the same setting: with `CCCCN(Cc1ccccc1)C(=O)Nc1cc(Cl)c(NC(=O)C(F)(F)F)c(Cl)c1` [1-(n-Butyl)-1-benzyl-3-(4-trifluoroacetylamino-3,5-dichlorophenyl)urea] the figure was 87.8%; with `CCCCN(Cc1ccc2c(c1)OCO2)C(=O)Nc1ccc(C)cc1C` [1-(n-Butyl)-1-(3,4-methylenedioxybenzyl)-3-(2,4-dimethylphenyl)urea], 88.2%; with `CCCCN(Cc1ccccc1)C(=O)Nc1cccc(C(F)(F)F)c1` [1-Benzyl-1-( -n-butyl)-3-(3-trifluoromethylphenyl)urea], 85.7%.
The same measure, in the same setting: for `CCCCN(Cc1ccc(C(F)(F)F)cc1)C(=O)Nc1ccc(C)cc1C` [1-(n-Butyl)-1-(4-trifluoromethylbenzyl)-3-(2,4-dimethylphenyl)urea] the value was 93.3%; for `Cc1ccc(NC(=O)N(CCC(c2ccccc2)c2ccccc2)c2ccc3c(c2)OCO3)c(C)c1` [1-(3,4-Methylenedioxyphenyl)-1-(3,3-diphenylpropyl)-3-(2,4-dimethylphenyl)urea], 87.8%.
Regarding `O=C(Nc1cc(Cl)c(Cl)cc1Cl)N(Cc1ccccc1)C(Cc1ccccc1)c1ccc(OCc2ccccc2)cc1` (centres unmarked) [1-Benzyl-1-[2-phenyl-1-(4-benzyloxyphenyl)ethyl]-3-(2,4,5-trichlorophenyl)urea], the inhibition at 5.2 µg/mL was 95%.
The same measure, in the same setting: with `CCCCN(Cc1ccccc1)C(=O)Nc1cc(Cl)ccc1OC` [1-Benzyl-1-( -n-butyl)-3-(5-chloro-2-methoxyphenyl)urea] the figure was 80.6%; with `CCCCCCCN(CCc1ccccc1)C(=O)Nc1cc(Cl)c(Cl)cc1Cl` [1-(n-Heptyl)-1-(2-phenylethyl)-3-(2,4,5-trichlorophenyl)urea], 77.3%.
Still for that read-out and setting: for `CCCCN(Cc1ccc(F)cc1)C(=O)Nc1ccc(C)cc1C` [1-( -n-Butyl)-1-(4-fluorobenzyl)-3-(2,4-dimethylphenyl)urea] the value was 80.6%; for `Cc1cccc(CCN(Cc2cccc([N+](=O)[O-])c2)C(=O)Nc2ccc(C)cc2C)c1` [1-[2-(3-Methylphenyl)ethyl]-1-(3-nitrobenzyl)-3-(2,4-dimethylphenyl)urea], 95.7%.
With `CCCCN(CCc1cccc(OC)c1)C(=O)Nc1ccc(C)cc1C` [1-(n-Butyl)-1-[2-(3-methoxyphenyl)ethyl]-3-(2,4-dimethylphenyl)urea], the inhibition at 5.2 µg/mL was 98.3%.
Still for that read-out and setting: for `CCCCCCCN(CCc1ccccc1)C(=O)Nc1cccc(C(F)(F)F)c1` [1-(n-Heptyl)-1-(2-phenylethyl)-3-(3-trifluoromethylphenyl)urea] the value was 88.4%; for `CCOc1ccc(CCN(Cc2ccccc2Cl)C(=O)Nc2ccc(C)cc2C)cc1` [1-[2-(4-Ethoxyphenyl)ethyl]-1-(2-chlorobenzyl)-3-(2,4-dimethylphenyl)urea], 94.1%.
Same read-out and setting: for `CCCCCOc1ccc(CN(Cc2ccc(CCCCC)cc2)C(=O)Nc2ccc(Cl)cc2C)cc1` [1-(4-n-Pentylbenzyl)-1-(4-n-pentyloxybenzyl)-3-(2-methyl-4-chlorophenyl)urea] the value was 91%.
Still for that read-out and setting: with `CCCCCCCCCCN(Cc1ccccc1)C(=O)Nc1ccc(C)cc1C` [1-(n-Decyl)-1-benzyl-3-(2,4-dimethylphenyl)urea] the figure was 96.1%.
On to `CCCCN(Cc1ccccc1)C(=O)Nc1ccc(Cl)c(Cl)c1` [1-Benzyl-1-( -n-butyl)-3-(3,4-dichlorophenyl)urea], for which the inhibition at 5.2 µg/mL came to 95.9%.
Same read-out and setting: with `CCCCN(Cc1ccccc1)C(=O)Nc1cccc(Cl)c1` [1-Benzyl-1-(n-butyl)-3-(3-chlorophenyl)urea] the figure was 88.6%.
On the same count and under the same terms, with `CCCCN(Cc1ccc(Br)cc1)C(=O)Nc1ccc(C)cc1C` [1-(4-Bromobenzyl)-1-(n-butyl)-3-(2,4-dimethylphenyl)urea] the figure was 81%.
Still for that read-out and setting: for `CCCCN(Cc1ccccc1)C(=O)Nc1cc(C)ccc1C` [1-Benzyl-1-( -n-butyl)-3-(2,5-dimethylphenyl)urea] the value was 92.7%; for `CCCCCOc1ccc(CN(Cc2ccc(CCCCC)cc2)C(=O)Nc2ccc(Cl)cc2C(F)(F)F)cc1` [1-(4-n-Pentylbenzyl)-1-(4-n-pentyloxybenzyl)-3-(2-trifluoromethyl-4-chlorophenyl)urea], 81%.
Regarding `CCCCCCCN(C(=O)Nc1cc(C)c(C)cc1C)c1ccco1` [1-(n-Heptyl)-1-(2-furyl)-3-(2,4,5-trimethylphenyl)urea], the inhibition at 5.2 µg/mL was determined as 93.8%.
The same measure, in the same setting: with `CCCCN(Cc1ccccc1)C(=O)Nc1ccccc1C` [1-Benzyl-1-( -n-butyl)-3-(2-methylphenyl)urea] the figure was 78.8%.
The same measure, in the same setting: with `CCCCN(Cc1ccccc1)C(=O)Nc1cccc(C)c1` [1-Benzyl-1-( -n-butyl)-3-(3-methylphenyl)urea] the figure was 92.3%; with `Cc1ccc(NC(=O)N(CCc2ccccc2C)Cc2ccc(Br)cc2)c(C)c1` [1-[2-(2-Methylphenyl)ethyl]-1-(4-bromobenzyl)-3-(2,4-dimethylphenyl)urea], 29.2%.

The same test, now with this note: rat adrenal ACAT; several concentrations.
What is called IC50 is the midpoint of a concentration-inhibition curve. Compound `Cc1cc(Cl)cc(C)c1NC(=O)N(CCCCCC(C)O)Cc1ccc(CC(C)(C)C)cc1` (centres unmarked) [1-(6-Hydroxyheptyl)-1-[4-(2,2-dimethylpropyl)benzyl]-3-(4-chloro-2,6-dimethylphenyl)urea] gave an IC50 of 1130 nM.

(Values after patent US4623662A, “Antiatherosclerotic ureas and thioureas” (American Cyanamid Company, priority 1985, dated 1986).)
